Columns and labels:
[1] = molecular target: 5-HT1B receptor (Homo sapiens, UniProt P28222); assay: 5-HT1B receptor functional assay (cAMP assay, inverse agonist); assay type: cell-based; conditions: inverse agonist activity, CHO-K1/5-HT1B cells, read-out: 5HT1BR, EC50
[2] = system: male ICR mice; assay: APO-induced climbing in mice
[3] = system: male ICR mice; conditions: p.o.
[4] = molecular target: T1, H1 receptor (Homo sapiens, UniProt P35367); assay: H1 receptor functional assay (calcium flow, FLIPR); assay type: cell-based; conditions: HEK293/H1 cells, read-out: H1R, IC50
T1 construct: host or cells: HEK293/H1
T1 sequence (P35367 whole entry): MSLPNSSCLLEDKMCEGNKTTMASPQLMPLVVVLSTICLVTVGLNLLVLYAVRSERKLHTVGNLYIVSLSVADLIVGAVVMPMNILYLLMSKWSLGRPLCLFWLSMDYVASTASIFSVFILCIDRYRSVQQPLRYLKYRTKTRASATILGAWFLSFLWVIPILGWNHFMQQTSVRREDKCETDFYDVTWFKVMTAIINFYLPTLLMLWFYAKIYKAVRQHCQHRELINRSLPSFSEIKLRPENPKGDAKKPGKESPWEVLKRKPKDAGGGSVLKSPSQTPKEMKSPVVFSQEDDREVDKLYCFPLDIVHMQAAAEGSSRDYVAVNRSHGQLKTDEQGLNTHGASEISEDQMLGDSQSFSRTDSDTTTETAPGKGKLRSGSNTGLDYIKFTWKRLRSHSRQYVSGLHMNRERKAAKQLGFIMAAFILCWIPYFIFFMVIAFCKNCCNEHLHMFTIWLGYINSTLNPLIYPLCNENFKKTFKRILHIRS

[5] = Pharmacokinetics assay in rats; assay type: in vivo, male SD rats
Method: Six male SD rats (7 weeks of age) were randomly divided into two groups with three rats per group. Animals were fasted overnight and had free access to water before dosing. For the intravenous group, male SD rats were administered NH300094 by single intravenous bolus administration at a dose of 2 mg/kg. For the oral group, male SD rats were dosed orally with NH300094 at a dose of 10 mg/kg. Serial blood samples were collected at different time points (Pre-dose, 0.033, 0.083, 0.25, 0.5, 1, 2, 4, 6, 8, 12 and 24 h for the intravenous group; Pre-dose, 0.167, 0.333, 0.5, 1, 2, 4, 6, 8, 10, 12 and 24 h for the oral group) via jugular vein puncture from each study animal. All blood samples were transferred into commercial tube containing K2-EDTA. Plasma samples were prepared by centrifuging the blood samples at approximately 4°C, 3,200×g for 15 min, and then stored at −70°C until analysis (Supplementary Materials). The pharmacokinetic parameters were calculated using WinNonlin software (Version 6.3) according to non-compartmental model.

[6] = system: male ICR mice; assay: Forced swimming test in mice; assay type: in vivo; conditions: single oral dose; NH300094 0.03 mg/kg; risperidone 0.01, 0.03 and 0.1 mg/kg
Method: Each mouse was required to swim in an open cylindrical container (height of 25 cm, diameter of 10 cm) after intragastric administration of compounds 1 h. The container contained 1.2 L of water with temperature maintained at 24°C ± 1°C. The test used a computerized analysis and tracking system (Clever Sys Inc., Leesburg, VA) to recorded the duration of immobility (last 4 min of a total time of 6 min) about the testing mice.

[7] = system: male ICR mice; assay: DOI-induced head twitch in mice
[8] = system: male Wistar rats; assay: Conditioned avoidance response test in rats; assay type: in vivo; conditions: Rattus norvegicus, single oral dose, read-out: ED50, inhibition of conditioned avoidance response
Description: Shuttle-box Avoidance Test Video Analysis System (DigBehv-SBG, Shanghai Jiliang Software Technology Co. Ltd.) were used to assess the rats conditioned avoidance response.
Phase I: The rats responded to the conditioned stimulus (auditory and visual) by training with foot shock reinforcement. Briefly, rats were placed into the CAR shuttle boxes for a 5-min habituation followed by 30 trials presented on a 20-s variable interval (20–30 s) stimulus. Each rats were subjected to a conditioned stimulus which consisted of 10s presentation of light and white noise, and then followed by a scrambled 1.5 mA foot shock for 10 s. […] Rats with avoidance rates greater than 70% for 3 consecutive days were included in this study post-training.
Phase II: The qualified rats were randomly divided into 7 groups. […] The procedure in the testing phase was the same as the Phase I described. The number of avoidances, escapes, and escape failures were recorded.

[9] = molecular target: T2, Alpha1A receptor (Homo sapiens, UniProt P35348); assay: Alpha1A receptor functional assay (calcium flow, FLIPR); assay type: cell-based; conditions: HEK293/Alpha1A cells, read-out: Alpha1AR, IC50
T2 construct: expressed in transfected cells; host or cells: HEK293/Alpha1A (constructed by Shanghai shujing Biopharma)
T2 sequence (P35348 1-466): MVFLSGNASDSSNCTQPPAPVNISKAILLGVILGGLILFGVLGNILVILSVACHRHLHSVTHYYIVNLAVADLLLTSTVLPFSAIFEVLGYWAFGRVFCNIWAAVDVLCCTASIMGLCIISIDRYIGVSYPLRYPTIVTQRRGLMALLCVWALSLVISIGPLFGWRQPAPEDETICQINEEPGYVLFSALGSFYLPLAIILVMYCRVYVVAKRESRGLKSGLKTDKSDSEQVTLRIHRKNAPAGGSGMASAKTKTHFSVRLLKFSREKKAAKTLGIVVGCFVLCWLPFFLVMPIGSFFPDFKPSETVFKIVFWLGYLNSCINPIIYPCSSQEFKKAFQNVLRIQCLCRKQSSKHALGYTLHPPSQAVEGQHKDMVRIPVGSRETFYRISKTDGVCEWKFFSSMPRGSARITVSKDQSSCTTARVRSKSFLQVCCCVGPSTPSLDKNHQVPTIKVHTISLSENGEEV

[10] = molecular target: T3, M1 receptor (Homo sapiens, UniProt P11229); assay: M1 receptor functional assay (calcium flow, FLIPR); assay type: cell-based; conditions: CHO-K1/M1 cells, read-out: M1R, IC50
T3 sequence (P11229 1-460): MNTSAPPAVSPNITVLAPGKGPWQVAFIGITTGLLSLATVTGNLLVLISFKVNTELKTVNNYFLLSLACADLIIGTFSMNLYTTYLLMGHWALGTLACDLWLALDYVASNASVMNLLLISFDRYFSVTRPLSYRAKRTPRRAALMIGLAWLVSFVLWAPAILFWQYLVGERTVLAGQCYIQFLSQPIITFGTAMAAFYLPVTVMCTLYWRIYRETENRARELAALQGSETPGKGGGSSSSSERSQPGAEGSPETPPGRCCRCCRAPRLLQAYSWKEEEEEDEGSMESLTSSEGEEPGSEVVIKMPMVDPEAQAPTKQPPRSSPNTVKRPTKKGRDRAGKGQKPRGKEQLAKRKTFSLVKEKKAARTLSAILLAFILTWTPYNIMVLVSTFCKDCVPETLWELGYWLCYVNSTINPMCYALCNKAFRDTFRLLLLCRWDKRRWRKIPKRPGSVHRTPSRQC

[11] = single oral dose, male ICR mice
[12] = rat, plasma, intravenous, 2 mg/kg, male SD rats
[13] = rat, plasma, oral, 10 mg/kg, male SD rats

5-HT1B receptor, sequence (P28222 whole entry): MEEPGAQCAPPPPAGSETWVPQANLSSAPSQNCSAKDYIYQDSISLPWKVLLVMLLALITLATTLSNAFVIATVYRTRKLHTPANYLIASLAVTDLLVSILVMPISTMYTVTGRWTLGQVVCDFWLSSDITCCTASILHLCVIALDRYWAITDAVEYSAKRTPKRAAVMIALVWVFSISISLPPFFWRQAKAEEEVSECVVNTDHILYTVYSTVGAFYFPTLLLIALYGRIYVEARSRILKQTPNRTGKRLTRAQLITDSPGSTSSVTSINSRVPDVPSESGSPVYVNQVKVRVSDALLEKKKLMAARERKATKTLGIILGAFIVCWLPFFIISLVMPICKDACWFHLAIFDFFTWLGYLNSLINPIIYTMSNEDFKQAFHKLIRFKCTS

## O=C1CCc2cc(OCCCN3CCC(c4noc5cc(F)ccc45)CC3)cc3c2N1CC3 [NH300094, 8-(3-(4-(6-fluorobenzo [d]isoxazol-3-yl)piperidin-1-yl)propoxy)-1,2,5,6-tetrahydro-4H-pyrrolo [3,2,1-ij] quinolin-4-one]
[1]
  EC50: 0.0284 ± 0.0125 µM
[2]; Mus musculus, read-out: ED50, inhibition of APO-induced climbing
  ED50: ~0.29 mg/kg
[2]; [11]
  MED, APO-induced climbing: 0.3 mg/kg
[3]
  minimal dose that induced catalepsy: 3 mg/kg
[4]
  IC50: 0.126 µM
[5]; male, SD, rat, plasma, oral, 10 mg/kg, oral 10 mg/kg vs intravenous 2 mg/kg, male SD rats
  bioavailability: ~87.6%
[5]; oral administration, rats (rounded value in text)
  area under the concentration time-curves for time zero to infinity: 14800 ng/mL*h
[5]; [12]
  AUC(0-inf): 3.38 µg·h/mL
  AUC(0-t): 3.37 µg·h/mL
  C0: 10.8 µg/mL
  clearance: 0.595 L/h/kg
  half-life: 1.73 h
[5]; rat, plasma, intravenous, 2 mg/kg, male SD rats, read-out: Vdss
  Vd: 0.379 L/kg
[5]; [13]
  AUC(0-inf): 14.8 µg·h/mL
  AUC(0-t): 14.8 µg·h/mL
  Cmax: 8.71 µg/mL
  Tmax: 0.389 h
  half-life: 1.28 h
[6]
  effect on immobility time in the FST: decreased immobility time
[7]; Mus musculus, po, read-out: ED50, inhibition of DOI-induced head twitch, single oral dose, male ICR mice, DOI 1 mg/kg
  ED50: ~0.007 mg/kg
[7]; [11]
  MED, DOI-induced head twitch: 0.003 mg/kg
[8]
  ED50: ~1.02 mg/kg
[9]
  IC50: 0.0285 µM
[10]
  IC50: 3.52 µM

From article PMC10848157, “Assessing NH300094, a novel dopamine and serotonin receptor modulator with cognitive enhancement property for treating schizophrenia” (Frontiers in Pharmacology, 2024)
